Test results: paper PMC9127750, “Structure-based design of CDC42 effector interaction inhibitors for the treatment of cancer” (Cell reports, 2022)
Several values for one entry are separate records, joined by “and”; a condition that tells them apart may be missing. Identical values can stand only once.

System: WM3248 melanoma cells, 486 antibodies
Experiment: Reverse phase protein arrays (RPPA)
Type: cell-based, Human
Details: 10 uM, single replicates
Description: Pellets were snap frozen in liquid nitrogen and shipped to MD Anderson Cancer Center core RPPA facility for RPPA analysis (Table S5). Three biological replicates for each sample were generated.
Nomenclatures on the RPPA heatmaps: name_of_antibody.species_of_antibody.status_of_antibody. V - antibody validated; C - validation of antibody in progress; Q - antibody nonspecific; E – under evaluation; antibodies raised in M - mouse, G - goat, R - rabbit, or T - rat.

CN(C)c1cccc(Nc2cc(-c3ccccc3)nc(C3CCNCC3)n2)c1 [ARN22089, N1,N1-dimethyl-N3-(6-phenyl-2-(piperidin-4-yl)pyrimidin-4-yl)benzene-1,3-diamine]
RPPA PDHA1.R.V: 0.868 and 1.050
RPPA PDHK1.R.C: 0.847 and 0.989 and 1.019
RPPA PDK1.R.V: 1.007 and 1.121 and 1.006
RPPA PDK1_pS241.R.V: 0.935 and 0.909 and 0.981
RPPA PEA.15.R.V: 0.898 and 0.934 (2×)
RPPA PEA.15_pS116.R.V: 0.987
RPPA PERK.R.V: 0.972 and 0.874
RPPA PGM1.R.V: 1.007 and 0.983 and 1.004
RPPA PHGDH.R.C: 0.889 and 1.016
RPPA PHLPP.R.V: 1.515 and 0.856 and 0.877
RPPA PI3K.p85.R.C: 1.113 and 1.033
RPPA PI3K.p110.a.R.C: 0.828 and 0.921 and 0.963
RPPA PI3K.p110.b.M.C: 0.981 and 0.937
RPPA PKA.a.R.V: 1.016 and 0.756 and 0.860
RPPA PKC.a.b.II_pT638_T641.R.V: 0.761 and 0.940 and 1.029
RPPA PKC.b.II_pS660.R.V: 0.960 and 1.055
RPPA PKCa.R.V: 1.576 and 0.715 and 0.684
RPPA PKM2.R.C: 0.940 and 0.831 and 1.047
RPPA PLC.gamma1.R.V: 1.302 and 0.921 and 1.027
RPPA PLC.gamma1_pS1248.R.V: 1.246 and 0.852 and 0.899
RPPA PLC.gamma2_pY759.R.V: 1.055 and 1.008 and 1.052
RPPA PLK1.R.C: 1.052 and 0.570
RPPA PMS2.R.V: 1.013 and 1.061 and 1.035
RPPA PR.R.V: 1.051 and 1.057 and 1.083
RPPA PRAS40.M.C: 1.053 and 1.125 and 0.970
RPPA PRAS40_pT246.R.V: 0.997 and 0.945 and 0.929
RPPA PRC1_pT481.R.C: 1.013
RPPA PREX1.R.V: 0.847 and 0.880 and 1.018
RPPA PTEN.R.V: 0.967 and 0.919
RPPA PTPN12.R.V: 0.922 and 0.923
RPPA PYGB.R.V: 1.000 and 1.018
RPPA PYGM.M.C: 0.933 and 0.899 and 1.244
RPPA Patched.R.C: 0.891 and 1.022 and 1.001
RPPA Paxillin.R.C: 0.651 and 0.874 and 0.967
RPPA Pdcd4.R.C: 1.032 and 0.964 and 0.935
RPPA Porin.M.V: 0.986 and 1.054 and 1.019
RPPA Puma.R.C: 1.032 and 0.898 and 0.973
RPPA Pyk2_pY402.R.C: 0.958 and 0.968 and 0.955
RPPA RBM15.R.V: 0.860 and 0.890 and 0.867
RPPA RIP3.R.C: 0.858 and 0.945
RPPA RIP.R.C: 0.855 and 1.003
RPPA RPA32.R.V: 1.116 and 1.009 and 0.985
RPPA RPA32_pS4_S8.R.C: 1.499 and 0.874 and 0.876
RPPA RRM1.R.C: 0.796
RPPA RRM2.R.C: 0.716 and 0.950 and 1.085
RPPA RSK1.R.V: 1.235 and 0.841
RPPA RSK.R.C: 1.016 and 0.831 and 0.880
RPPA Rab11.R.C: 0.965 and 1.012 and 0.993
RPPA Rab25.R.V: 0.970 and 0.991 and 0.975
RPPA Rad17_pS645.R.V: 1.158
RPPA Rad23A.R.C: 0.785 and 0.923 and 1.052
RPPA Rad50.R.V: 1.047 and 1.001 and 0.925
RPPA Rad51.R.C: 1.141
RPPA Raptor.R.V: 0.898 and 0.967 and 0.952
RPPA Rb.M.Q: 1.031
RPPA Rb_pS807_S811.R.V: 0.993 and 0.916 and 0.946
RPPA Rheb.M.C: 1.005
RPPA Rictor.R.C: 0.984 and 0.977 and 0.904
RPPA Rictor_pT1135.R.V: 1.006 and 1.049 and 1.026
RPPA S6.M.V: 1.029 and 0.890 and 0.873
RPPA S6_pS235_S236.R.V: 0.665 and 0.702 and 0.771
RPPA S6_pS240_S244.R.V: 1.130 and 0.761 and 0.978
RPPA SCD.M.V: 0.998 and 1.016
RPPA SDHA.R.V: 0.885 and 1.085 and 0.936
RPPA SF2.R.V: 0.975 and 1.048 and 0.992
RPPA SFRP1.R.V: 0.871 and 0.955
RPPA SGK1.R.V: 1.123 and 0.868
RPPA SGK3.R.V: 0.999 and 1.114 and 0.994
RPPA SHP2.R.V: 1.022 and 1.001 and 0.989
RPPA SHP.2_pY542.R.C: 0.948 and 0.890 and 0.849
RPPA SIRPαR.V: 1.018 and 0.987 and 1.021
RPPA SLC1A5.R.C: 0.918 and 0.893 and 1.114
RPPA SOD1.M.V: 1.011 and 1.084 and 0.999
RPPA SOD2.R.V: 1.111 and 1.200 and 1.033
RPPA SOX7.R.V: 1.014 and 0.995
RPPA STING.R.V: 0.837 and 0.985 and 0.890
RPPA Shc_pY317.R.C: 0.828 and 3.472 and 1.241
RPPA Slfn11.G.C: 0.855 and 0.895
RPPA Smac.M.Q: 0.941 and 1.118 and 0.934
RPPA Smad1.R.V: 0.926 and 1.050
RPPA Smad3.R.V: 0.971 and 0.982 (2×)
RPPA Smad4.R.V: 1.125 and 1.111 and 0.988
RPPA Snail.M.Q: 0.848 and 1.076 and 1.006
RPPA Sox2.R.V: 0.994 and 0.995 and 0.973
RPPA Sox17.R.V: 1.081 and 0.902
RPPA Src.M.V: 0.986 and 1.228 and 1.023
RPPA Src_pY416.R.V: 1.112 and 0.914
RPPA Src_pY527.R.V: 1.187 and 0.891 and 0.646
RPPA Stat1_pY701.R.V: 1.116 and 1.000 and 0.989
RPPA Stat3.R.C: 0.928 and 0.967 and 1.021
RPPA Stat3_pY705.R.C: 1.145 and 0.998 and 0.863
RPPA Stat5a.R.V: 1.136 and 0.906 and 0.832
RPPA Stathmin.1.R.V: 0.796 and 1.056 and 1.053
RPPA Syk.M.V: 0.989 and 1.109 and 1.102
RPPA Synaptophysin.R.C: 1.199 and 0.991
RPPA TAZ.R.V: 0.707 and 1.122 and 1.046
RPPA TEAD.R.C: 0.724 and 1.098 and 1.080
RPPA TFAM.R.V: 0.916 and 0.953 and 0.872
RPPA TFRC.R.V: 0.933 and 0.837 and 1.007
RPPA TIGAR.R.V: 1.010 and 0.954 and 0.970
RPPA TRAP1.M.V: 0.985
RPPA TRIM24.R.C: 1.099 and 1.139 and 0.970
RPPA TRIM25.R.C: 0.787 and 0.889 and 0.933
RPPA TRIP13.R.V: 1.107 and 0.967 and 1.005
RPPA Tau.M.C: 1.121 and 1.140
RPPA Transglutaminase.M.V: 0.953 and 1.132 and 1.561
RPPA level HLA.DQA1.R.V: 0.942 and 1.249 and 0.908
RPPA level HLA.DR.DP.DQ.DX.R.C: 0.965 and 0.939
RPPA level HMHA1.R.V: 0.904 and 1.030 and 0.992
RPPA level HNRNPK.R.V: 1.000 and 1.157 and 1.048
RPPA level HSP27.M.C: 1.035 and 0.965
RPPA level HSP27_pS82.R.V: 0.973 and 1.006 and 0.985
RPPA level HSP60.R.V: 0.817 and 0.961
RPPA level HSP70.R.C: 0.863 and 0.990 and 0.973
RPPA level Hexokinase.I.R.C: 1.158 and 0.954
RPPA level Hexokinase.II.R.V: 1.125 and 0.921 and 0.919
RPPA level Hif.1αR.C: 1.247 and 1.014 and 0.671
RPPA level Histone.H3.R.V: 0.930 and 0.956 and 0.776
RPPA level Histone.H3_pS10.R.V: 1.200 and 0.894 and 1.027
RPPA level IDO.R.C: 0.882 and 1.060
RPPA level IGF1R_pY1135_Y1136.R.V: 0.904 and 0.968 and 0.956
RPPA level IGFBP2.R.V: 0.540 and 0.765
RPPA level IGFBP3.M.V: 0.727 and 1.079 and 1.122
RPPA level IGFRb.R.C: 0.931 and 1.005 and 0.850
RPPA level IL.6.R.C: 0.856 and 0.994 and 1.019
RPPA level IMP3.R.C: 1.033 and 1.014 and 0.956
RPPA level INPP4b.R.C: 0.980 and 0.827
RPPA level IR.b.R.C: 0.942 and 1.158 and 1.047
RPPA level IRF.1.R.V: 0.733 and 0.989 and 0.863
RPPA level IRF.3.R.V: 1.005 and 1.049 and 1.057
RPPA level IRS1.R.V: 0.956 and 0.975 and 0.990
RPPA level IRS2.R.C: 1.250 and 0.922 and 0.822
RPPA level JAB1.M.C: 0.937 and 1.033
RPPA level JNK2.R.V: 0.765 and 3.367 and 1.426
RPPA level JNK_pT183_Y185.R.C: 0.982 and 0.932 and 1.030
RPPA level Jagged1.R.V: 0.877 and 1.048
RPPA level Jak2.R.V: 0.931 (2×) and 1.019
RPPA level KAP1.R.V: 1.035 and 0.844 and 0.861
RPPA level KEAP1.R.V: 1.174 and 0.839
RPPA level LAD1.R.V: 0.772 and 1.056 and 1.078
RPPA level LC3A.B.R.C: 1.052 and 0.957 and 0.853
RPPA level LCN2.R.V: 2.061 and 0.840 and 0.854
RPPA level LDHA.R.C: 0.770 and 1.150
RPPA level LRP6_pS1490.R.V: 0.906 and 0.988 and 0.894
RPPA level Lasu1.R.V: 1.033 and 1.132 and 1.052
RPPA level Lck.R.V: 0.988 and 0.991 and 0.942
RPPA level Lyn.R.V: 1.113 and 1.221 and 0.942
RPPA level MACC1.R.V: 1.081 and 1.061 and 1.005
RPPA level MAPK_pT202_Y204.R.C: 0.770 and 0.851 and 1.246
RPPA level MCT4.R.V: 0.673 and 0.768 and 1.020
RPPA level MDM2_pS166.R.V: 1.142 and 0.902
RPPA level MEK1.R.V: 2.774 and 0.771 and 0.759
RPPA level MEK1_pS217_S221.R.V: 1.065 and 0.907 and 1.005
RPPA level MEK2.R.V: 0.928 and 1.010 and 0.996
RPPA level MERIT40.R.C: 0.985
RPPA level MERIT40_pS29.R.V: 0.918 and 1.049
RPPA level METTL3.R.V: 1.128 and 1.097 and 0.930
RPPA level MIF.R.C: 1.023 and 1.117 and 1.048
RPPA level MIG6.R.V: 0.921 and 1.139 and 1.007
RPPA level MITF.R.V: 1.105 and 1.065 and 0.952
RPPA level MLH1.M.V: 1.000 and 0.967
RPPA level MLKL.R.V: 0.819 and 0.881 and 1.048
RPPA level MMP2.R.V: 1.026 and 0.968 and 0.958
